Here are results for 15 molecules from patent US20240208992A1, “MACROCYCLES AS CFTR MODULATORS” (Idorsia Pharmaceuticals Ltd, priority 2021, published 2024).

Structures are written as SMILES.

This assay has as its target human F508del-CFTR (Homo sapiens, UniProt P13569, DEL508-508). Kind of assay: F508del-CFTR cell surface expression (corrector activity), DiscoveRx ß-galactosidase complementation chemiluminescence assay in recombinant U2OS cell line.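 On all read-outs here: U2OS cells co-expressing ProLink-tagged F508del-CFTR and a membrane-anchored enzyme acceptor, where more surface CFTR restores β-galactosidase activity measured by chemiluminescence.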 Conditions: U2OS cell line, 16h compound incubation; for EC50: EC50, F508del-CFTR cell surface expression, geomean values; for Emax: U2OS, in relation to the Emax of the corrector lumacaftor (=100%), arithmetic mean values.

human F508del-CFTR, sequence (P13569 with tags, fused parts or gaps DEL508-508): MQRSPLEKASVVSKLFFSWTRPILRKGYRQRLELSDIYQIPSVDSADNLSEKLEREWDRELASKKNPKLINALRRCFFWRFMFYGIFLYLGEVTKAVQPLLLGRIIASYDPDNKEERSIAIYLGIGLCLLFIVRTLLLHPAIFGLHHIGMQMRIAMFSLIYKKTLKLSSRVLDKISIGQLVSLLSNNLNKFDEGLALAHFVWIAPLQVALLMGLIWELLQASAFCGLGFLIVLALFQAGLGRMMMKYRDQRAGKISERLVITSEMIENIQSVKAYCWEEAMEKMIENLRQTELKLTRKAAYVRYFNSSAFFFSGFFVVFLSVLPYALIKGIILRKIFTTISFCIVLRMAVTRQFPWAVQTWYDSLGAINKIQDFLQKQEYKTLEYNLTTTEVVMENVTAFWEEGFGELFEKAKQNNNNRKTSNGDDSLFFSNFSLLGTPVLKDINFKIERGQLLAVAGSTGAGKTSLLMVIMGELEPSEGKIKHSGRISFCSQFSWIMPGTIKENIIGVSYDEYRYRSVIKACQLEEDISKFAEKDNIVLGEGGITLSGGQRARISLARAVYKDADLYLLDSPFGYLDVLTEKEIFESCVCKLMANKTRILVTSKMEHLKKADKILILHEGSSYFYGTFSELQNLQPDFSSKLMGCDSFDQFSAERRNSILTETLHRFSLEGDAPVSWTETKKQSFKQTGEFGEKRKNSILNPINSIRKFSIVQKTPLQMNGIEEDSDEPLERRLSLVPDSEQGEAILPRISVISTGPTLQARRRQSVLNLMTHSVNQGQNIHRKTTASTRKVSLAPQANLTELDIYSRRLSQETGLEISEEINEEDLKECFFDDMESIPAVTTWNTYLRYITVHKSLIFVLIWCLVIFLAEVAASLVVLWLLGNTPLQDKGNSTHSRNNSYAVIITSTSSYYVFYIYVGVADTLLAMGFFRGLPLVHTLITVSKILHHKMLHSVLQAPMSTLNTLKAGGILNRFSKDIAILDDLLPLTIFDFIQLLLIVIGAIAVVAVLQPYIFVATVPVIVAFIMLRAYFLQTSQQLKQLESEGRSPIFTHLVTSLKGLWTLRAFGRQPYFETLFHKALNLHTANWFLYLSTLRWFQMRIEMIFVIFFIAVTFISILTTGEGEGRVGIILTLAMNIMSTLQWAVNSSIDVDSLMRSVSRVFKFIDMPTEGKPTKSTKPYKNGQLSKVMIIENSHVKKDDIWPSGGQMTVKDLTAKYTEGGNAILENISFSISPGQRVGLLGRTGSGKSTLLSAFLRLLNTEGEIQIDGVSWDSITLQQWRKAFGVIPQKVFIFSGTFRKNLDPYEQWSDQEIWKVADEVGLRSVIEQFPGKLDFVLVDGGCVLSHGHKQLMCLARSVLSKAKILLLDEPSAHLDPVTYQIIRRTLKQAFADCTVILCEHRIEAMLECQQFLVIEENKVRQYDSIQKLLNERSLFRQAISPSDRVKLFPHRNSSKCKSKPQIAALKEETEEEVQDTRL

Take `CC(C)C[C@H]1C(=O)N2CCOC[C@@H]2C(=O)N[C@H](Cc2ccccc2)COc2ccc3ccccc3c2C(=O)N[C@H](C(=O)NCCc2ccc3c(c2)OCCO3)CC(=O)N1C` [Example 39, (4aR,7R,18S,22S)-7-benzyl-N-(2-(2,3-dihydrobenzo[b][1,4]dioxin-6-yl)ethyl)-22-isobutyl-21-methyl-5,16,20,23-tetraoxo-1,2,4,4a,5,6,7,8,16,17,18,19,20,21,22,23-hexadecahydronaphtho[1,2-p][1,4]oxazino[3,4-f][1]oxa[4,7,10,14]tetraazacycloheptadecine-18-carboxamide]: the 50% effective concentration (EC50) stood at 415 nM and the Emax was 450%.

Turning to `CC(C)C[C@H]1C(=O)N2CCOC[C@@H]2C(=O)N[C@H](Cc2ccccc2)COc2ccc3ccccc3c2C(=O)N[C@H](C(=O)NCCc2ccc(C#N)cc2)CC(=O)N1C` [Example 40, (4aR,7R,18S,22S)-7-benzyl-N-(4-cyanophenethyl)-22-isobutyl-21-methyl-5,16,20,23-tetraoxo-1,2,4,4a,5,6,7,8,16,17,18,19,20,21,22,23-hexadecahydronaphtho[1,2-p][1,4]oxazino[3,4-f][1]oxa[4,7,10,14]tetraazacycloheptadecine-18-carboxamide], the EC50 is 897 nM and the Emax is 147%.

For `CC(C)C[C@H]1C(=O)N2CCOC[C@@H]2C(=O)N[C@H](Cc2ccccc2)COc2ccc3ccccc3c2C(=O)N[C@H](C(=O)NCCc2cccc(-n3nccn3)c2)CC(=O)N1C` [Example 41, (4aR,7R,18S,22S)-N-(3-(2H-1,2,3-triazol-2-yl)phenethyl)-7-benzyl-22-isobutyl-21-methyl-5,16,20,23-tetraoxo-1,2,4,4a,5,6,7,8,16,17,18,19,20,21,22,23-hexadecahydronaphtho[1,2-p][1,4]oxazino[3,4-f][1]oxa[4,7,10,14]tetraazacycloheptadecine-18-carboxamide], the EC50 turned out to be 280 nM and the Emax was 215%.

Turning to `CC(C)C[C@H]1C(=O)N2CCOC[C@@H]2C(=O)N[C@H](Cc2ccccc2)COc2ccc3ccccc3c2C(=O)N[C@H](C(=O)NCCc2ccc3c(c2)OCC3)CC(=O)N1C` [Example 42, (4aR,7R,18S,22S)-7-benzyl-N-(2-(2,3-dihydrobenzofuran-6-yl)ethyl)-22-isobutyl-21-methyl-5,16,20,23-tetraoxo-1,2,4,4a,5,6,7,8,16,17,18,19,20,21,22,23-hexadecahydronaphtho[1,2-p][1,4]oxazino[3,4-f][1]oxa[4,7,10,14]tetraazacycloheptadecine-18-carboxamide], the EC50 was 353 nM and the Emax came to 419%.

In the case of `Cc1noc(C)c1CCNC(=O)[C@@H]1CC(=O)N(C)[C@@H](CC(C)C)C(=O)N2CCOC[C@@H]2C(=O)N[C@H](Cc2ccccc2)COc2ccc3ccccc3c2C(=O)N1` [Example 43, (4aR,7R,18S,22S)-7-benzyl-N-(2-(3,5-dimethylisoxazol-4-yl)ethyl)-22-isobutyl-21-methyl-5,16,20,23-tetraoxo-1,2,4,4a,5,6,7,8,16,17,18,19,20,21,22,23-hexadecahydronaphtho[1,2-p][1,4]oxazino[3,4-f][1]oxa[4,7,10,14]tetraazacycloheptadecine-18-carboxamide], the concentration for a half-maximal effect (EC50) was found to be 862 nM and the Emax came out at 137%.

In the case of `CCc1nc(CCNC(=O)[C@@H]2CC(=O)N(C)[C@@H](CC(C)C)C(=O)N3CCOC[C@@H]3C(=O)N[C@H](Cc3ccccc3)COc3ccc4ccccc4c3C(=O)N2)no1` [Example 44, (4aR,7R,18S,22S)-7-benzyl-N-(2-(5-ethyl-1,2,4-oxadiazol-3-yl)ethyl)-22-isobutyl-21-methyl-5,16,20,23-tetraoxo-1,2,4,4a,5,6,7,8,16,17,18,19,20,21,22,23-hexadecahydronaphtho[1,2-p][1,4]oxazino[3,4-f][1]oxa[4,7,10,14]tetraazacycloheptadecine-18-carboxamide], the EC50 worked out at 571 nM and the Emax amounted to 247%.

As to `CC(C)C[C@H]1C(=O)N2CCOC[C@@H]2C(=O)N[C@H](Cc2ccccc2)COc2ccc3ccccc3c2C(=O)N[C@H](C(=O)NCCc2noc(C3CC3)n2)CC(=O)N1C` [Example 45, (4aR,7R,18S,22S)-7-benzyl-N-(2-(5-cyclopropyl-1,2,4-oxadiazol-3-yl)ethyl)-22-isobutyl-21-methyl-5,16,20,23-tetraoxo-1,2,4,4a,5,6,7,8,16,17,18,19,20,21,22,23-hexadecahydronaphtho[1,2-p][1,4]oxazino[3,4-f][1]oxa[4,7,10,14]tetraazacycloheptadecine-18-carboxamide], the EC50 was 682 nM and the Emax turned out to be 324%.

In the case of `CC(C)C[C@H]1C(=O)N2CCOC[C@@H]2C(=O)N[C@H](Cc2ccccc2)COc2cnc3ccccc3c2C(=O)N[C@H](C(=O)NCCc2csc(C(C)C)n2)CC(=O)N1C` [Example 46, (9S,13S,19aR,22R)-22-benzyl-13-isobutyl-N-(2-(2-isopropylthiazol-4-yl)ethyl)-12-methyl-7,11,14,20-tetraoxo-7,8,9,10,11,12,13,14,16,17,19,19a,20,21,22,23-hexadecahydro-[1,4]oxazino[3′,4′:6,7][1]oxa[4,7,10,14]tetraazacycloheptadecino[17,16-c]quinoline-9-carboxamide], the EC50 was 679 nM and the Emax was determined as 137%.

On to `CCc1ccc(CCNC(=O)[C@@H]2CC(=O)N(C)[C@@H](CC(C)C)C(=O)N3CCOC[C@@H]3C(=O)N[C@H](Cc3ccccc3)COc3cnc4ccccc4c3C(=O)N2)cc1` [Example 47, (9S,13S,19aR,22R)-22-benzyl-N-(4-ethylphenethyl)-13-isobutyl-12-methyl-7,11,14,20-tetraoxo-7,8,9,10,11,12,13,14,16,17,19,19a,20,21,22,23-hexadecahydro-[1,4]oxazino[3′,4′:6,7][1]oxa[4,7,10,14]tetraazacycloheptadecino[17,16-c]quinoline-9-carboxamide], for which the EC50 came to 213 nM and the Emax came to 247%.

As for `CC(C)C[C@H]1C(=O)N2CCOC[C@@H]2C(=O)N[C@H](Cc2ccccc2)COc2cnc3ccccc3c2C(=O)N[C@H](C(=O)NCCc2ccc(C(C)(C)C)cc2)CC(=O)N1C` [Example 48, (9S,13S,19aR,22R)-22-benzyl-N-(4-(tert-butyl)phenethyl)-13-isobutyl-12-methyl-7,11,14,20-tetraoxo-7,8,9,10,11,12,13,14,16,17,19,19a,20,21,22,23-hexadecahydro-[1,4]oxazino[3′,4′:6,7][1]oxa[4,7,10,14]tetraazacycloheptadecino[17,16-c]quinoline-9-carboxamide], the EC50 was determined as 409 nM and the maximum response (Emax) is 151%.

As to `CC(C)C[C@H]1C(=O)N2CCOC[C@@H]2C(=O)N[C@H](Cc2ccccc2)COc2cnc3ccccc3c2C(=O)N[C@H](C(=O)NCCc2ccc(Br)cc2)CC(=O)N1C` [Example 49, (9S,13S,19aR,22R)-22-benzyl-N-(4-bromophenethyl)-13-isobutyl-12-methyl-7,11,14,20-tetraoxo-7,8,9,10,11,12,13,14,16,17,19,19a,20,21,22,23-hexadecahydro-[1,4]oxazino[3′,4′:6,7][1]oxa[4,7,10,14]tetraazacycloheptadecino[17,16-c]quinoline-9-carboxamide], the EC50 was determined as 347 nM and the Emax was 136%.

In the case of `CC(C)C[C@H]1C(=O)N2CCOC[C@@H]2C(=O)N[C@H](Cc2ccccc2)COc2cnc3ccccc3c2C(=O)N[C@H](C(=O)NCCc2ccccc2F)CC(=O)N1C` [Example 50, (9S,13S,19aR,22R)-22-benzyl-N-(2-fluorophenethyl)-13-isobutyl-12-methyl-7,11,14,20-tetraoxo-7,8,9,10,11,12,13,14,16,17,19,19a,20,21,22,23-hexadecahydro-[1,4]oxazino[3′,4′:6,7][1]oxa[4,7,10,14]tetraazacycloheptadecino[17,16-c]quinoline-9-carboxamide], the EC50 worked out at 558 nM and the Emax was 256%.

On to `CC(C)C[C@H]1C(=O)N2CCOC[C@@H]2C(=O)N[C@H](Cc2ccccc2)COc2cnc3ccccc3c2C(=O)N[C@H](C(=O)NCCc2cccc(Cl)c2)CC(=O)N1C` [Example 51, (9S,13S,19aR,22R)-22-benzyl-N-(3-chlorophenethyl)-13-isobutyl-12-methyl-7,11,14,20-tetraoxo-7,8,9,10,11,12,13,14,16,17,19,19a,20,21,22,23-hexadecahydro-[1,4]oxazino[3′,4′:6,7][1]oxa[4,7,10,14]tetraazacycloheptadecino[17,16-c]quinoline-9-carboxamide], for which the EC50 was 352 nM and the Emax is 187%.

Consider `CC(C)C[C@H]1C(=O)N2CCOC[C@@H]2C(=O)N[C@H](Cc2ccccc2)COc2cnc3ccccc3c2C(=O)N[C@H](C(=O)NCCc2cccc(Br)c2)CC(=O)N1C` [Example 52, (9S,13S,19aR,22R)-22-benzyl-N-(3-bromophenethyl)-13-isobutyl-12-methyl-7,11,14,20-tetraoxo-7,8,9,10,11,12,13,14,16,17,19,19a,20,21,22,23-hexadecahydro-[1,4]oxazino[3′,4′:6,7][1]oxa[4,7,10,14]tetraazacycloheptadecino[17,16-c]quinoline-9-carboxamide], for which the EC50 amounted to 348 nM and the Emax came to 176%.

On to `CC(C)C[C@H]1C(=O)N2CCOC[C@@H]2C(=O)N[C@H](Cc2ccccc2)COc2cnc3ccccc3c2C(=O)N[C@H](C(=O)NCCc2ccc3c(c2)OCCO3)CC(=O)N1C` [Example 53, (9S,13S,19aR,22R)-22-benzyl-N-(2-(2,3-dihydrobenzo[b][1,4]dioxin-6-yl)ethyl)-13-isobutyl-12-methyl-7,11,14,20-tetraoxo-7,8,9,10,11,12,13,14,16,17,19,19a,20,21,22,23-hexadecahydro-[1,4]oxazino[3′,4′:6,7][1]oxa[4,7,10,14]tetraazacycloheptadecino[17,16-c]quinoline-9-carboxamide], for which the EC50 worked out at 596 nM and the Emax was 404%.

For orientation: EC50 means the concentration giving half of the maximal effect. By Emax is commonly meant the greatest response seen or fitted, relative to the assay's reference.
